The results in this text go back to ChEMBL document CHEMBL1126528, “Synthesis and biological evaluation of a series of HIV-1 protease inhibitors” (Bioorg Med Chem Lett, 1993).

A value given as a limit tells only on which side of the number the result lay.

One experiment has as its system MT2. The experiment is described as follows: Concentration required for anti-viral activity (Anti-HIV-IIIB activity) against human T lymphoid (MT-2) cells that are infected with HIV-IIIB virus. Format: functional, cell-based.
Experiment [1] addresses Human immunodeficiency virus type 1 protease (Human immunodeficiency virus 1, UniProt Q72874). Nature of the experiment: Concentration required for inhibitory activity against HIV-1 Protease.

Usually IC50 stands for the concentration needed to halve the response being measured. Low values mean inhibition by little substance, high ones a need for much substance. On to `CC(C)(C)NC(=O)[C@@H]1C[C@@H]2CCCC[C@@H]2CN1C[C@@H](O)[C@H](Cc1ccccc1)NC(=O)[C@H](CC(N)=O)NC(=O)c1ccc2ccccc2n1`, for which the IC50 in the experiment on MT2 was 3 nM.
Consider `CC[C@H](C)[C@H](NC(=O)[C@H](Cc1ccccc1)C[C@@H](O)CN1C[C@H]2CCCC[C@H]2C[C@H]1C(=O)NC(C)(C)C)C(=O)NCc1nc2ccccc2[nH]1`, for which the values for the IC50 (with MT2; in experiment [1]) were 21 nM and 30 nM, respectively.
For the molecule `CC[C@H](C)[C@H](NC(=O)[C@H](Cc1ccccc1)CC(O)CN1CCC[C@@H]1C(=O)N[C@H](C(=O)OC(C)(C)C)[C@@H](C)CC)C(=O)NCc1nc2ccccc2[nH]1` (some centres undefined), the values for the IC50 (in the experiment on MT2; in experiment [1]) were over 1750 nM and over 1400 nM, respectively.
As for `CC[C@H](C)[C@H](NC(=O)[C@H](Cc1ccccc1)CC(O)CN1CCC[C@@H]1C(=O)NC(C)(C)C)C(=O)NCc1nc2ccccc2[nH]1` (some centres undefined), the results for the IC50 (in the experiment with MT2; in experiment [1]) were 490 nM and 80 nM, respectively.
`CC[C@H](C)[C@H](NC(=O)[C@H](Cc1ccccc1)CC(O)(CO)CN1C[C@H]2CCCC[C@H]2C[C@H]1C(=O)NC(C)(C)C)C(=O)NCc1nc2ccccc2[nH]1` (some centres undefined) returned an IC50 in the experiment with MT2 of 280 nM.
With `CC[C@H](C)[C@H](NC(=O)[C@H](Cc1ccccc1)CC(O)CN1C[C@H]2CCCC[C@H]2C[C@H]1C(=O)NC(C)(C)C)C(=O)OC` (some centres undefined), the IC50 with MT2 is over 1750 nM.
Take `CC(C)(C)NC(=O)[C@@H]1C[C@@H]2CCCC[C@@H]2CN1CC(O)C[C@@H](Cc1ccccc1)C(=O)N[C@H]1CCCC[C@@H]1NC(=O)c1ccc2ccccc2n1` (some centres undefined): the IC50 stood at 3600 nM in the experiment on MT2 and 70 nM in experiment [1].
`CC[C@H](C)[C@H](NC(=O)[C@H](Cc1ccccc1)CC(O)(CO)CN(CC(=O)NC(C)(C)C)CC1CCCCC1)C(=O)NCc1nc2ccccc2[nH]1` (some centres undefined): the IC50 in the experiment on MT2 is over 1750 nM; in experiment [1], 140 nM.
As for `CC[C@H](C)[C@H](NC(=O)[C@H](Cc1ccccc1)CC(O)CN1CCCCC1C(=O)NC(C)(C)C)C(=O)NCc1nc2ccccc2[nH]1` (some centres undefined), the values for the IC50 (with MT2; in experiment [1]) were 480 nM and 30 nM, respectively.
Regarding `CC(C)(C)NC(=O)[C@@H]1C[C@@H]2CCCC[C@@H]2CN1CC(O)C[C@@H](Cc1ccccc1)C(=O)N[C@H]1CCCC[C@@H]1NC(=O)c1cc2ccccc2cn1` (some centres undefined), the IC50 in the experiment with MT2 was 1750 nM; in experiment [1], 70 nM.
Turning to `CC[C@H](C)[C@H](NC(=O)[C@H](CC(C)C)CC(O)CN1C[C@H]2CCCC[C@H]2C[C@H]1C(=O)NC(C)(C)C)C(=O)NCc1nc2ccccc2[nH]1` (some centres undefined), the IC50 in the experiment with MT2 worked out at 31 nM; in experiment [1] it was 30 nM.
The corresponding values for `CC[C@H](C)[C@H](NC(=O)[C@H](Cc1ccccc1)CC(O)CN1C[C@H]2CCCC[C@H]2C[C@H]1C(=O)NC(C)(C)C)C(=O)NCCc1nc2ccccc2[nH]1` (some centres undefined) are 850 nM and 130 nM.
In the case of `CN(CC(O)C[C@@H](Cc1ccccc1)C(=O)N[C@H]1CCCC[C@@H]1NC(=O)c1ccc2ccccc2n1)[C@@H](CC1CCCCC1)C(=O)NC(C)(C)C` (some centres undefined), the IC50 in the experiment on MT2 is over 1750 nM; in experiment [1] it was over 1400 nM.
As for `CC[C@H](C)[C@H](NC(=O)[C@H](Cc1ccccc1)CC(O)CN1CCCCC1C(=O)NC(C)(C)C)C(=O)NCc1ccccn1` (some centres undefined), the IC50 in the experiment on MT2 was over 1750 nM; in experiment [1], 250 nM.
The corresponding values for `CC[C@H](C)[C@H](NC(=O)[C@H](Cc1ccccc1)CC(O)CN1C[C@H]2CCCC[C@H]2C[C@H]1C(=O)NC(C)(C)C)C(=O)NCc1ccccn1` (some centres undefined) are 310 nM and 150 nM.
For the molecule `CC[C@H](C)[C@H](NC(=O)[C@H](Cc1ccccc1)CC(O)CN1C[C@H]2CCCC[C@H]2C[C@H]1C(=O)NC(C)(C)C)C(=O)NCc1nc2ccccc2[nH]1` (single isomer, unassigned), the IC50 with MT2 was found to be 29 nM; in experiment [1], 30 nM.
